Results on 14 substances are retold here after the OligoGym collection.

HELM strings list units from the 5' end as sugar, base in round brackets, then linkage (d deoxyribose, r ribose, m 2'-O-methyl, p phosphodiester). Strings are as the collection lists them, not checked against the first reports. ss, as = sense and antisense strand; [lna] = locked nucleic acid (LNA); [una] = unlocked nucleic acid; [s4r] = 4'-thioribose; [fl2r] = 2'-fluoro
Further: test system not given here.

The conditions of the data set: siRNA.
On to “RNA1{m(A)p.r(C)p.m(G)p.r(U)p.m(C)p.r(A)p.m(C)p.r(C)p.m(G)p.r(A)p.m(G)p.r(G)p.m(A)p.r(G)p.m(A)p.r(A)p.m(G)p.r(U)p.m(A)p.r(T)p.r(T)}|RNA2{r(U)p.r(A)p.r(C)p.r(U)p.r(U)p.r(C)p.r(U)p.r(C)p.r(C)p.r(U)p.r(C)p.r(G)p.r(G)p.r(U)p.r(G)p.r(A)p.r(C)p.r(G)p.r(U)p.r(T)p.r(T)}$$$RNA1{StrandType:ss}|RNA2{StrandType:as}$”, for which the target mRNA knockdown was found to be 36%.

As for “RNA1{r(C)p.r(G)p.r(U)p.r(A)p.r(C)p.r(G)p.r(C)p.r(G)p.r(G)p.r(A)p.r(A)p.r(U)p.r(A)p.r(C)p.r(U)p.r(U)p.r(C)p.r(G)p.r(A)p.r(T)p.r(T)}|RNA2{[s4r](U)p.[s4r](C)p.[s4r](G)p.[s4r](A)p.[s4r](A)p.[s4r](G)p.r(U)p.r(A)p.r(U)p.r(U)p.r(C)p.r(C)p.r(G)p.[s4r](C)p.[s4r](G)p.[s4r](U)p.[s4r](A)p.[s4r](C)p.[s4r](G)p.r(T)p.r(T)}$$$RNA1{StrandType:ss}|RNA2{StrandType:as}$”, the target mRNA knockdown is 22.8%.

For the substance “RNA1{r(G)p.r(A)p.r(A)p.r(A)p.r(A)p.r(C)p.r(G)p.r(C)p.r(U)p.m(U)p.r(G)p.m(U)p.r(A)p.r(A)p.r(A)p.r(G)p.r(C)p.r(C)p.r(G)p.r(T)p.r(T)}|RNA2{r(C)p.r(G)p.r(G)p.r(C)p.r(U)p.r(U)p.m(U)p.r(A)p.m(C)p.r(A)p.r(A)p.r(G)p.r(C)p.r(G)p.r(U)p.r(U)p.r(U)p.r(U)p.r(C)p.r(T)p.r(T)}$$$RNA1{StrandType:ss}|RNA2{StrandType:as}$”, the target mRNA knockdown was determined as 54%.

Regarding “RNA1{r(A)p.r(A)p.m(U)p.r(A)p.r(A)p.r(G)p.r(C)p.r(A)p.r(G)p.r(C)p.r(U)p.r(C)p.r(G)p.r(C)p.r(G)p.r(C)p.r(U)p.r(C)p.r(C)p.r(T)p.r(T)}|RNA2{r(G)p.r(G)p.r(A)p.r(G)p.r(C)p.r(G)p.r(C)p.r(G)p.r(A)p.r(G)p.r(C)p.r(U)p.r(G)p.r(C)p.r(U)p.m(U)p.r(A)p.r(U)p.r(U)p.r(T)p.r(T)}$$$RNA1{StrandType:ss}|RNA2{StrandType:as}$”, the target mRNA knockdown is 69%.

Substance “RNA1{r(C)p.r(C)p.r(C)p.r(U)p.r(C)p.r(C)p.r(C)p.r(C)p.[fl2r](U)p.r(G)p.r(U)p.r(C)p.r(C)p.r(C)p.r(C)p.r(G)p.[fl2r](C)p.r(U)p.r(U)p.r(T)p.r(T)}|RNA2{r(A)p.r(A)p.r(G)p.r(C)p.r(G)p.r(G)p.r(G)p.r(G)p.r(A)p.[fl2r](C)p.r(A)p.r(G)p.r(G)p.r(G)p.r(G)p.r(A)p.r(G)p.r(G)p.r(G)p.r(T)p.r(T)}$$$RNA1{StrandType:ss}|RNA2{StrandType:as}$” came in with a target mRNA knockdown of 72%.

Consider “RNA1{r(C)p.r(U)p.r(U)p.r(A)p.r(C)p.r(G)p.r(C)p.r(U)p.r(G)p.r(A)p.r(G)p.r(U)p.r(A)p.r(C)p.r(U)p.r(U)p.r(C)p.r(G)p.r(A)p.r(T)p.r(T)}|RNA2{r(U)p.r(C)p.r(G)p.r(A)p.r(A)p.r(G)p.r(U)p.r(A)p.r(C)p.r(U)p.r(C)p.r(A)p.r(G)p.r(C)p.r(G)p.r(U)p.r(A)p.[lna](A)p.r(G)p.r(T)p.r(T)}$$$RNA1{StrandType:ss}|RNA2{StrandType:as}$”, for which the target mRNA knockdown stood at 92%.

In the case of “RNA1{r(A)p.r(A)p.r(A)p.r(C)p.r(C)p.r(C)p.r(C)p.m(U)p.r(A)p.r(G)p.r(A)p.r(G)p.r(G)p.r(G)p.r(C)p.r(A)p.r(A)p.r(G)p.r(U)p.r(T)p.r(T)}|RNA2{r(A)p.r(C)p.r(U)p.r(U)p.r(G)p.r(C)p.r(C)p.r(C)p.r(U)p.r(C)p.m(U)p.r(A)p.r(G)p.r(G)p.r(G)p.r(G)p.r(U)p.r(U)p.r(U)p.r(T)p.r(T)}$$$RNA1{StrandType:ss}|RNA2{StrandType:as}$”, the target mRNA knockdown was 75%.

As to “RNA1{r(C)p.r(U)p.r(A)p.r(A)p.r(G)p.r(G)p.r(A)p.r(C)p.r(C)p.r(U)p.r(A)p.r(A)p.r(C)p.r(A)p.r(A)p.r(A)p.r(G)p.r(U)p.[una](U)p.r(U)p.r(U)}|RNA2{r(A)p.r(A)p.r(C)p.r(U)p.r(U)p.r(U)p.r(G)p.r(U)p.r(U)p.r(A)p.r(G)p.r(G)p.r(U)p.r(C)p.r(C)p.r(U)p.r(U)p.r(A)p.r(G)p.r(U)p.r(U)}$$$RNA1{StrandType:ss}|RNA2{StrandType:as}$”, the target mRNA knockdown amounted to 60%.

The substance “RNA1{r(U)p.r(U)p.r(C)p.[fl2r](U)p.r(A)p.r(A)p.r(C)p.r(C)p.r(G)p.r(G)p.r(G)p.r(C)p.r(A)p.r(G)p.r(C)p.r(U)p.r(U)p.r(C)p.r(U)p.r(T)p.r(T)}|RNA2{r(A)p.r(G)p.r(A)p.r(A)p.r(G)p.r(C)p.r(U)p.r(G)p.r(C)p.r(C)p.r(C)p.r(G)p.r(G)p.r(U)p.[fl2r](U)p.r(A)p.r(G)p.r(A)p.r(A)p.r(T)p.r(T)}$$$RNA1{StrandType:ss}|RNA2{StrandType:as}$” gave a target mRNA knockdown of 72%.

Substance “RNA1{r(G)p.r(C)p.r(U)p.r(U)p.r(C)p.r(G)p.r(G)p.r(A)p.r(A)p.r(A)p.r(C)p.r(U)p.r(G)p.r(G)p.r(A)p.[fl2r](C)p.r(A)p.r(U)p.r(C)p.r(T)p.r(T)}|RNA2{r(G)p.r(A)p.[fl2r](U)p.r(G)p.r(U)p.r(C)p.[fl2r](C)p.r(A)p.r(G)p.r(U)p.r(U)p.r(U)p.r(C)p.r(C)p.r(G)p.r(A)p.r(A)p.r(G)p.r(C)p.r(T)p.r(T)}$$$RNA1{StrandType:ss}|RNA2{StrandType:as}$” came in with a target mRNA knockdown of 90%.

On to “RNA1{r(U)p.r(C)p.r(U)p.r(C)p.r(G)p.r(U)p.r(A)p.r(A)p.r(G)p.r(G)p.r(A)p.r(C)p.r(G)p.r(A)p.r(A)p.r(A)p.r(C)p.r(G)p.r(A)p.r(T)p.r(T)}|RNA2{r(U)p.r(C)p.r(G)p.r(U)p.r(U)p.r(U)p.r(C)p.r(G)p.r(U)p.r(C)p.r(C)p.r(U)p.m(U)p.r(A)p.r(C)p.r(G)p.r(A)p.r(G)p.r(A)p.r(T)p.r(T)}$$$RNA1{StrandType:ss}|RNA2{StrandType:as}$”, for which the target mRNA knockdown stood at 55%.

The substance “RNA1{m(A)p.m(A)p.r(C)p.r(C)p.r(C)p.m(A)p.r(C)p.r(C)p.m(A)p.r(C)p.m(A)p.r(G)p.r(C)p.m(U)p.m(A)p.r(G)p.m(A)p.m(A)p.r(C)p.r(U)p.r(U)}|RNA2{r(A)p.r(A)p.r(G)p.r(U)p.r(U)p.r(C)p.m(U)p.r(A)p.r(G)p.r(C)p.r(U)p.r(G)p.r(U)p.r(G)p.r(G)p.r(U)p.r(G)p.r(G)p.r(G)p.r(U)p.r(U)}$$$RNA1{StrandType:ss}|RNA2{StrandType:as}$” gave a target mRNA knockdown of 32%.

In the case of “RNA1{[fl2r](U)p.r(U)p.[fl2r](A)p.r(C)p.[fl2r](C)p.r(C)p.[fl2r](C)p.r(G)p.[fl2r](A)p.r(U)p.[fl2r](U)p.r(C)p.[fl2r](A)p.r(G)p.[fl2r](C)p.r(C)p.[fl2r](U)p.r(C)p.[fl2r](U)p.r(T)p.r(T)}|RNA2{r(A)p.r(G)p.r(A)p.r(G)p.r(G)p.r(C)p.r(U)p.r(G)p.r(A)p.r(A)p.r(U)p.r(C)p.r(G)p.r(G)p.r(G)p.r(G)p.r(U)p.r(A)p.r(A)p.r(T)p.r(T)}$$$RNA1{StrandType:ss}|RNA2{StrandType:as}$”, the target mRNA knockdown worked out at 67%.

Regarding “RNA1{[s4r](C)p.[s4r](G)p.[s4r](U)p.[s4r](A)p.r(C)p.r(G)p.r(C)p.r(G)p.r(G)p.r(A)p.r(A)p.r(U)p.r(A)p.r(C)p.r(U)p.[s4r](U)p.[s4r](C)p.[s4r](G)p.[s4r](A)p.r(T)p.r(T)}|RNA2{r(U)p.r(C)p.r(G)p.r(A)p.r(A)p.r(G)p.r(U)p.r(A)p.r(U)p.r(U)p.r(C)p.r(C)p.r(G)p.r(C)p.r(G)p.r(U)p.r(A)p.[s4r](C)p.[s4r](G)p.r(T)p.r(T)}$$$RNA1{StrandType:ss}|RNA2{StrandType:as}$”, the target mRNA knockdown stood at 92%.
